# Measured values: patent US20250122192A1, “5-PYRIMIDINECARBOXAMIDE DERIVATIVES AND METHODS OF USING THE SAME” (Rgenta Therapeutics, Inc., priority 2021, published 2025)
# Counter-ions that a name gives are not always drawn.
# Tested on: PMS1
# Assay: Mini-gene reporter assay-PMS1
# Format: cell-based
# Details: Homo sapiens, HEK293, PMS1 mini-gene firefly luciferase reporter transiently transfected into HEK293 cells; read-out: PMS1 IC50
# Method in brief: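 Compound dilution series in duplicate added to transiently transfected HEK293 reporter cells, then incubated; EC50 from Levenberg-Marquardt fit of luminescence. The reporter joins the alternatively skipped exon, its neighbouring introns and exons to firefly luciferase, so induced inclusion gives more signal.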
row,SMILES,IC50
1,"CCOc1nc(N2CCN(C)CC2)ncc1C(=O)Nc1cc(F)c2nn(C)cc2c1 [Compound 259, 4-ethoxy-N-(7-fluoro-2-methyl-2H-indazol-5-yl)-2-(4-methylpiperazin-1-yl)pyrimidine-5-carboxamide formate]",1000 to 3000 nM
2,"CCOc1nc(N2CC[C@H](NC)C2)ncc1C(=O)Nc1cc(F)c2nc(C)cn2c1 [Compound 261, (S)-4-ethoxy-N-(8-fluoro-2-methylimidazo[1,2-a]pyridin-6-yl)-2-(3-(methylamino)pyrrolidin-1-yl)pyrimidine-5-carboxamide formate]",< 500 nM
3,"CCOc1nc(N2CC[C@@H](NC)C2)ncc1C(=O)Nc1cc(F)c2nc(C)cn2c1 [Compound 262, (R)-4-ethoxy-N-(8-fluoro-2-methylimidazo[1,2-a]pyridin-6-yl)-2-(3-(methylamino)pyrrolidin-1-yl)pyrimidine-5-carboxamide formate]",< 500 nM
4,"CCOc1nc(N2CCC(NC)C2)ncc1C(=O)Nc1cc(F)c2nn(C)cc2c1 (stereo not drawn) [Compound 263, 4-ethoxy-N-(7-fluoro-2-methyl-2H-indazol-5-yl)-2-(3-(methylamino)pyrrolidin-1-yl)pyrimidine-5-carboxamide formate]",< 500 nM
5,"CCOc1nc(N2CCN[C@H](C)C2)ncc1C(=O)Nc1cc(F)c2nn(C)cc2c1 [Compound 264, (R)-4-ethoxy-N-(7-fluoro-2-methyl-2H-indazol-5-yl)-2-(3-methylpiperazin-1-yl)pyrimidine-5-carboxamide formic acid]",1000 to 3000 nM
6,"CCOc1nc(N2CCNC(C)(C)C2)ncc1C(=O)Nc1cc(F)c2nn(C)cc2c1 [Compound 265, 2-(3,3-dimethylpiperazin-1-yl)-4-ethoxy-N-(7-fluoro-2-methyl-2H-indazol-5-yl)pyrimidine-5-carboxamide]",> 3000 nM
7,"COc1nc(NC2CCNCC2)ncc1C(=O)Nc1cn2cc(C)nc2c(C)n1 [Compound 266, N-(2,8-dimethylimidazo[1,2-a]pyrazin-6-yl)-4-methoxy-2-(piperidin-4-ylamino) pyrimidine-5-carboxamide formic acid]",1000 to 3000 nM
8,"CCOc1nc(N(CC)C2CCNCC2)ncc1C(=O)Nc1cn2cc(C)nc2cn1 [Compound 267, 4-ethoxy-2-(ethyl(piperidin-4-yl)amino)-N-(2-methylimidazo[1,2-a]pyrazin-6-yl)pyrimidine-5-carboxamide formic acid]",500 to 1000 nM
9,"CCOc1nc(NC2CCNCC2)ncc1C(=O)Nc1cn2cc(C)nc2cn1 [Compound 268, 4-ethoxy-N-(2-methylimidazo[1,2-a]pyrazin-6-yl)-2-(piperidin-4-ylamino) pyrimidine-5-carboxamide formate]",1000 to 3000 nM
10,"CCOc1nc(N2CCC(N(C)C)C2)ncc1C(=O)Nc1cc(F)c2nc(C)cn2c1 (stereo not drawn) [Compound 269, 2-(3-(dimethylamino)pyrrolidin-1-yl)-4-ethoxy-N-(8-fluoro-2-methylimidazo[1,2-a]pyridin-6-yl)pyrimidine-5-carboxamide]",1000 to 3000 nM
11,"CCOc1nc(N2CCC(NC)C2)ncc1C(=O)Nc1ccc2nn(C)cc2c1 (stereo not drawn) [Compound 270, 4-ethoxy-N-(2-methyl-2H-indazol-5-yl)-2-(3-(methylamino)pyrrolidin-1-yl)pyrimidine-5-carboxamide hydrochloride]",< 500 nM
12,"COc1nc(NC2CCNCC2)ncc1C(=O)Nc1cn2cc(C)nc2cn1 [Compound 271, 4-methoxy-N-(2-methylimidazo[1,2-a]pyrazin-6-yl)-2-(piperidin-4-ylamino) pyrimidine-5-carboxamide 2,2,2-trifluoroacetate]",> 3000 nM
13,"CCOc1nc(N(CC)C2CCNCC2)ncc1C(=O)Nc1ccc2nn(C)cc2c1 [Compound 272, 4-ethoxy-2-(ethyl(piperidin-4-yl)amino)-N-(2-methyl-2H-indazol-5-yl)pyrimidine-5-carboxamide formate]",1000 to 3000 nM
14,"CCOc1nc(N2CCNCC2)ncc1C(=O)Nc1cc(OC)c2nn(C)cc2c1 [Compound 273, 4-ethoxy-N-(7-methoxy-2-methyl-2H-indazol-5-yl)-2-(piperazin-1-yl)pyrimidine-5-carboxamide formate]",1000 to 3000 nM
15,"CCOc1nc(N2CCC(NC)C2)ncc1C(=O)Nc1ccc2nc(C)cn2c1 (stereo not drawn) [Compound 274, 4-ethoxy-2-(3-(methylamino)pyrrolidin-1-yl)-N-(2-methylimidazo[1,2-a]pyridin-6-yl)pyrimidine-5-carboxamide]",> 3000 nM
16,"CCOc1nc(N(C)C2CCNCC2)ncc1C(=O)Nc1cc(F)c2nn(C)cc2c1 [Compound 275, 4-ethoxy-N-(7-fluoro-2-methyl-2H-indazol-5-yl)-2-(methyl(piperidin-4-yl)amino) pyrimidine-5-carboxamide formate]",< 500 nM
17,"CCOc1nc(N2CCC(NC)C2)ncc1C(=O)Nc1cnc2nn(C)cc2c1 (stereo not drawn) [Compound 276, 4-ethoxy-N-(2-methyl-2H-pyrazolo[3,4-b]pyridin-5-yl)-2-(3-(methylamino)pyrrolidin-1-yl)pyrimidine-5-carboxamide formate]",> 3000 nM
18,"CCOc1nc(N2CC[C@H](NC)C2)ncc1C(=O)Nc1cc(F)c2nn(C)cc2c1 [Compound 277, (S)-4-ethoxy-N-(7-fluoro-2-methyl-2H-indazol-5-yl)-2-(3-(methylamino)pyrrolidin-1-yl)pyrimidine-5-carboxamide 4-methylbenzenesulfinate]",< 500 nM
19,"CCOc1nc(N2CCC(NC)C2)ncc1C(=O)Nc1cc(OC)c2nn(C)cc2c1 (stereo not drawn) [Compound 278, 4-ethoxy-N-(7-methoxy-2-methyl-2H-indazol-5-yl)-2-(3-(methylamino)pyrrolidin-1-yl)pyrimidine-5-carboxamide formate]",< 500 nM
20,"CCOc1nc(N2CCN[C@@H](C)C2)ncc1C(=O)Nc1cc(F)c2nn(C)cc2c1 [Compound 279, (S)-4-ethoxy-N-(7-fluoro-2-methyl-2H-indazol-5-yl)-2-(3-methylpiperazin-1-yl)pyrimidine-5-carboxamide formate]",< 500 nM
21,"CCOc1nc(N2C[C@@H](C)N[C@@H](C)C2)ncc1C(=O)Nc1cc(F)c2nn(C)cc2c1 [Compound 280, 2-((3R,5S)-3,5-dimethylpiperazin-1-yl)-4-ethoxy-N-(7-fluoro-2-methyl-2H-indazol-5-yl)pyrimidine-5-carboxamide 4-methylbenzenesulfonate]",1000 to 3000 nM
22,"CCOc1nc(N2CC[C@@H](NC)C2)ncc1C(=O)Nc1cc(F)c2nn(C)cc2c1 [Compound 282, (R)-4-ethoxy-N-(7-fluoro-2-methyl-2H-indazol-5-yl)-2-(3-(methylamino)pyrrolidin-1-yl)pyrimidine-5-carboxamide formate]",< 500 nM
23,"CCOc1nc(N2CCC(NC)C2)ncc1C(=O)Nc1cc(OC)c2nc(C)cn2c1 (stereo not drawn) [Compound 283, 4-ethoxy-N-(8-methoxy-2-methylimidazo[1,2-a]pyridin-6-yl)-2-(3-(methylamino)pyrrolidin-1-yl)pyrimidine-5-carboxamide formate]",< 500 nM
24,"CCN(c1ncc(C(=O)Nc2cc(F)c3nn(C)cc3c2)c(OC)n1)C1CCNCC1 [Compound 284, 2-(ethyl(piperidin-4-yl)amino)-N-(7-fluoro-2-methyl-2H-indazol-5-yl)-4-methoxypyrimidine-5-carboxamide formate]",< 500 nM
25,"CCOc1nc(N2CC[C@H](NC)C2)ncc1C(=O)Nc1ccc2nn(C)cc2c1 [Compound 285, (S)-4-ethoxy-N-(2-methyl-2H-indazol-5-yl)-2-(3-(methylamino)pyrrolidin-1-yl)pyrimidine-5-carboxamide 2,2,2-trifluoroacetate]",1000 to 3000 nM
26,"CCOc1nc(N2CC[C@@H](NC)C2)ncc1C(=O)Nc1ccc2nn(C)cc2c1 [Compound 286, (R)-4-ethoxy-N-(2-methyl-2H-indazol-5-yl)-2-(3-(methylamino)pyrrolidin-1-yl)pyrimidine-5-carboxamide formate]",500 to 1000 nM
27,"CCOc1nc(N2CCC(NC)C2)ncc1C(=O)Nc1cnc2nc(C)cn2c1 (stereo not drawn) [Compound 287, 4-ethoxy-2-(3-(methylamino)pyrrolidin-1-yl)-N-(2-methylimidazo[1,2-a]pyrimidin-6-yl)pyrimidine-5-carboxamide fomate]",1000 to 3000 nM
28,"CCOc1nc(N2CC[C@@H](NC)C2)ncc1C(=O)Nc1ccc2nc(C)cn2c1 [Compound 289, (R)-4-ethoxy-2-(3-(methylamino)pyrrolidin-1-yl)-N-(2-methylimidazo[1,2-a]pyridin-6-yl)pyrimidine-5-carboxamide formate]",1000 to 3000 nM
29,"CCOc1nc(N2CC[C@@H](N(C)C)C2)ncc1C(=O)Nc1cc(F)c2nc(C)cn2c1 [Compound 290, (R)-2-(3-(dimethylamino)pyrrolidin-1-yl)-4-ethoxy-N-(8-fluoro-2-methylimidazo[1,2-a]pyridin-6-yl)pyrimidine-5-carboxamide 4-methylbenzenesulfonate]",1000 to 3000 nM
30,"CCOc1nc(N2CC[C@H](N(C)C)C2)ncc1C(=O)Nc1cc(F)c2nn(C)cc2c1 [Compound 291, (S)-2-(3-(dimethylamino)pyrrolidin-1-yl)-4-ethoxy-N-(7-fluoro-2-methyl-2H-indazol-5-yl)pyrimidine-5-carboxamide formate]",> 3000 nM

# Same assay, conditions: Homo sapiens, HEK293, read-out: PMS1 IC50 (nM)
row,SMILES,IC50
1,"CCOc1nc(N(CC)C2CCNCC2)ncc1C(=O)Nc1cc(OC)c2nc(C)cn2c1 [Compound 260, 4-ethoxy-2-(ethyl(piperidin-4-yl)amino)-N-(8-methoxy-2-methylimidazo[1,2-a]pyridin-6-yl)pyrimidine-5-carboxamide formate]",< 500 nM
2,"CCOc1nc(N(CC)C2CCNCC2)ncc1C(=O)Nc1ccn2nc(C)cc2c1 [Compound 288, 4-ethoxy-2-(ethyl(piperidin-4-yl)amino)-N-(2-methylpyrazolo[1,5-a]pyridin-5-yl)pyrimidine-5-carboxamide formate]",500 to 1000 nM

# Same assay, conditions: Homo sapiens; at 5 μM; PMS1 mini-gene firefly luciferase reporter in HEK293 cells; read-out: PMS1% Effect at 5 μM
row,SMILES,activation at 5 µM
1,"COc1nc(N(C)C2CCNCC2)ncc1C(=O)Nc1cc(F)c2nn(C)cc2c1 [Compound 281, N-(7-fluoro-2-methyl-2H-indazol-5-yl)-4-methoxy-2-(methyl(piperidin-4-yl)amino) pyrimidine-5-carboxamide formate]",> 75%
